Experimental data published in PMC3981784 (PLoS ONE, 2014).

How the values were obtained:
[1] = molecular target: hemagglutinin derived from influenza A/California/04/2009(H1N1) (Influenza A virus, UniProt C3W5S1); test: Competition binding assay with sialic acid (native PAGE band gray scale); assay type: biochemical; conditions: for hemagglutinin aggregation (native PAGE lane): 600 μM SA alone (Lane 2), 6 μM PGG alone (Lane 3); for HA aggregation (decrease of relative density of HA monomer) / HA aggregation (decrease of relative density of HA monomer), percent: 6 μM PGG
Chain of hemagglutinin derived from influenza A/California/04/2009(H1N1) (C3W5S1 entry or part of it, added parts left off): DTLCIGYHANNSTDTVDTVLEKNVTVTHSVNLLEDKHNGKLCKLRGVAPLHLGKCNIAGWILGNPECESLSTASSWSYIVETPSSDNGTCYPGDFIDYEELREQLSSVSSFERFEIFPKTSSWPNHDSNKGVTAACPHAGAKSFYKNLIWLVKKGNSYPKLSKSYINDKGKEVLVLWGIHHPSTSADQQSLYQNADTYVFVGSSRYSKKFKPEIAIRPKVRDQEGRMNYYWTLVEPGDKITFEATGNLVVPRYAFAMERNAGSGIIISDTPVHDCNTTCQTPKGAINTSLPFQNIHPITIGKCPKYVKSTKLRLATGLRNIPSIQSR

[2] = system: purified influenza virus A/WSN/33; conditions: PGG 25 μM; TritonX-100 0.5% (v/v)
[3] = system: purified influenza virus A/WSN/33; test: Atomic force microscopy (AFM) of virus particles; conditions: 50 μM; for aggregation of viral particles (AFM images): 1 hour on ice; for heights of virions (AFM): versus DMSO-treated virions
[4] = system: A/WSN/33 (H1N1); test: Hemagglutination inhibition assay with chicken red blood cells; conditions: Influenza A virus, Erythrocyte, in Gallus gallus, read-out: EC50, inhibition of virus-induced hemagglutination
[5] = system: influenza virus A/WSN/33; test: Immunofluorescence microscopy of intra-nuclear nucleoprotein accumulation (virus entry) in MDCK cells; assay type: cell-based
[6] = system: MDCK cells; set-up: method as in PMID 21479599, PMID 19575286; conditions: ref [29], [30], read-out: cytotoxicity EC50; cited from earlier work
[7] = system: influenza virus; set-up: method as in PMID 21479599, PMID 19575286; conditions: ref [29], [30]; read-out: active concentration EC50 (anti-influenza virus activity); cited from earlier work
[8] = system: recombinant HA of A/Puerto Rico/8/1934 (H1N1), A/California/04/2009 (H1N1), A/Netherlands/219/03 (H7N7), and A/Anhui/1/2005 (H5N1); assay type: biochemical, influenza A virus; conditions: HA incubated on ice 30 min with compound; four HA subtypes
[9] = system: hemagglutinin of A/Puerto Rico/8/1934 (H1N1), A/California/04/2009 (H1N1), A/Netherlands/219/03 (H7N7), and A/Anhui/1/2005 (H5N1); assay type: binding, influenza A virus; conditions: four HA subtypes

CC(=O)N[C@H]1[C@H]([C@H](O)[C@H](O)CO)OC(O)(C(=O)O)C[C@@H]1O (stereo partly shown) [SA, Sialic acid, reference compound]
hemagglutinin aggregation (native PAGE lane) [1]: reduces hemagglutinin aggregation

TritonX-100 [reference compound]
membrane structures of the virus particles (TEM) [2]: destroyed membrane structures

O=C(OC[C@H]1O[C@@H](OC(=O)c2cc(O)c(O)c(O)c2)[C@H](OC(=O)c2cc(O)c(O)c(O)c2)[C@@H](OC(=O)c2cc(O)c(O)c(O)c2)[C@@H]1OC(=O)c1cc(O)c(O)c(O)c1)c1cc(O)c(O)c(O)c1 [PGG, penta-galloyl-glucose]
aggregation of viral particles (AFM images) [3]: significantly aggregated | heights of virions (AFM) [3]: significantly greater than that of DMSO-treated virions | EC50 [4]: 5 ± 2 nM | intra-nuclear accumulation of virus nucleoprotein (NP), virus entry [5]: significantly decreased in the number of nucleoprotein-positive nucleus | HA aggregation (decrease of relative density of HA monomer) ([1]; with the presence of 600 μM SA): 0.22 | HA aggregation (decrease of relative density of HA monomer), percent ([1]; with the presence of 600 μM SA): 20.7% | HA aggregation (decrease of relative density of HA monomer) ([1]; without SA): 0.33 | HA aggregation (decrease of relative density of HA monomer), percent ([1]; without SA): 33.2% | hemagglutinin aggregation (native PAGE lane) [1]: increases hemagglutinin aggregation | EC50 [6]: 31500 ± 4600 nM | EC50 [7]: 2510 ± 310 nM | membrane structures of the virus particles (TEM) [2]: remain undisrupted

O=C(O[C@@H]1Cc2c(O)cc(O)cc2O[C@@H]1c1cc(O)c(O)c(O)c1)c1cc(O)c(O)c(O)c1 [EGCG, (−)-epigallocatechin-3-gallate]
EC50 [4]: 430 ± 1 nM

O=C(OC[C@H]1O[C@@H](OC(=O)c2cc(O)c(O)c(O)c2)[C@H](OC(=O)c2cc(O)c(O)c(O)c2)[C@@H](OC(=O)c2cc(O)c(O)c(O)c2)[C@@H]1O)c1cc(O)c(O)c(O)c1 [TGG, 1,2,3,6-Tetra-O-galloyl-beta-D-glucose]
aggregation of viral particles (AFM images) [3]: significantly aggregated | heights of virions (AFM) [3]: significantly greater than that of DMSO-treated virions | EC50 [4]: 1 ± 1 nM | intra-nuclear accumulation of virus nucleoprotein (NP), virus entry [5]: significantly decreased in the number of nucleoprotein-positive nucleus

O=C(O)c1cc(O)c(O)c(O)c1 [GA, Gallic acid]
aggregation of viral particles (AFM images) [3]: dispersive | EC50 [4]: > 50000 nM | intra-nuclear accumulation of virus nucleoprotein (NP), virus entry [5]: viral NP was detected in the nucleus | HA aggregation on native PAGE (HA polymer formation) [8]: not observed | interactions with HAs (SPR) [9]: No significant interactions

O=c1oc2c(O)c(O)cc3c(=O)oc4c(O)c(O)cc1c4c23 [EA, Ellagic acid]
EC50 [4]: 446 nM
